Measurements published in US6232347A, “Treatment of osteoarthritis” (Knoll Pharmaceutical Company, priority 2000, dated 2001).

Tested on: reuptake of all three monoamines
Experiment: monoamine reuptake inhibition profile (summary in words of Table 1)
Assay type: biochemical, rat
Conditions: with reference to Table 1, sibutramine through its pharmacologically active metabolites

Compound: CC(C)CC(N(C)C)C1(c2ccc(Cl)cc2)CCC1 (stereo not shown) [Sibutramine, N,N-dimethyl-1-[1-(4-chlorophenyl)cyclobutyl]-3-methylbutylamine]
- inhibition of monoamine reuptake / selectivity profile: inhibits the reuptake of all three monoamines
